Laboratory results reported in patent publication US20060270618A1, “Novel pharmaceutical composition of interferon gamma or pirfenidone with molecular diagnostics for the improved treatment of interstitial lung diseases” (priority 2001, published 2006).

Key:
[1] = system: patient with histologically proven UIP; test: Single patient with histologically proven UIP, CMV pretreatment then interferon gamma (FIG. 1); type: in vivo, human; conditions: failure of immunosuppressive treatment, gene transcription analysis
Text: FIG. 1: FIG. 1 depicts the total lung capacity (TLC), the partial pressure of arterial oxygen (PaO2), and the forced vital capacity (FVC) of a patient with histologically proven UIP (open lung biopsy) and failure of immunosuppressive treatment treated with interferon gamma. FIG. 1b) depicts the total lung capacity (TLC), the partial pressure of arterial oxygen (PaO2), and the forced vital capacity (FVC) of the same patient with histologically proven UIP (open lung biopsy) and failure of immunosuppressive treatment between time #l and time #2.

[2] = system: patients suffering from severe interstitial lung disease (ILD); test: Therapy of ILD/IPF patients: gene expression analysis followed by interferon gamma; type: in vivo, human
Text: Biopsies were taken from patients suffering from severe interstitial lung disease (ILD), after […] was given, using the surgical method of bronchoscopy. Obtained tissue probes were stored and processed for isolation of total RNA in RNAlater™ (patent pending), an aqueous, non-toxic tissue storage reagent that stabilizes and protects cellular RNA in intact, unfrozen tissue samples.
Analysis of Infectious agents in biopsies. As patients with ILD repeatedly suffer from inflammations, biopsied material was tested for the presence of infectious agents. Most dominant was the observation of underlying Herpes virus infections (treated with Ganciclovir) and various bacterial infections (treated with various antibiotics), or few fungal infections.
Therapy. Therapy with interferon gamma was only started after successful pretreatment of the underlying infections and the assessment of the gene expression of the endogenous disease signiture genes.

[3] = system: bleomycin-induced lung collagen fibrosis; conditions: bleomycin mice; cited from earlier work
CTGF = conditions: after six months of therapy; cited from earlier work
[4] = system: individuals suffering from IPF; conditions: cited from earlier work
TGF-β1 = conditions: after six months of therapy; cited from earlier work
[5] = after pretreatment of infections and gene expression analysis

Substance: interferon gamma [naturally occurring glycoprotein cytokine, molecular weight about 17.000, also produced by recombinant techniques]
- clinical outcome of the patient [1]: stabilization of the patient
- physical exertion capacity [2, 5]: substantial increase
- total lung capacity [2, 5]: statistically highly significant increase
- partial pressure of arterial oxygen ([2]; at rest): statistically significant increased
- effectiveness in the combination therapy ([2]; dose of 1.0-5.0 μg/kg body weight, 1-5 times per week, parenteral): effective
- disease symptoms ([2]; human, in vivo): strong decrease
- survival benefit ([2]; patients with IPF): significant survival benefit
- amount of fibrosis [3]: reduction in the amount of fibrosis
- expression of TGF-β1 [3]: reduced expression
- transcription of CTGF (CTGF): significantly diminished
- lung function [4]: improvement of lung function
- transcription of TGF-β1 (TGF-β1): significantly diminished
